Measurements reported in patent publication US20210255193A1, “LYSINE REACTIVE PROBES AND USES THEREOF” (The Scripps Research Institute, priority 2017, published 2021).

Experiments:
[1] = target: T1, NUDT2 (Homo sapiens, UniProt P50583); assay: competitive gel-based ABPP, apparent IC50; format: binding
T1 construct: expressed in transfected cells; host or cells: HEK 293T, transient transfection, soluble lysate; synthesized gene (IDT)
Protocol: Recombinant expression of proteins by transient transfection. HEK 293T cells were grown to 50% confluency in 10 ml DMEM supplemented with 10% fetal bovine serum (FBS), penicillin, streptomycin and glutamine in 10 cm tissue culture dishes. 3 μg of DNA was diluted in 500 μL DMEM and 30 μL of PEI (MW 40,000, 1 mg ml^−1, Polysciences) were added. The mixture was incubated at room temperature for 30 min and added dropwise to the cells. Cells were grown for 48 h at 37° C. with 5% CO2. Cells were washed with cold PBS, scraped with cold PBS and cell pellets were isolated by centrifugation (1,400 g, 3 min, 4° C.), and stored at −80° C. until use. Cell pellets were resuspended in PBS, lysed by sonication and fractionated (100,000 g, 45 min) to yield soluble and membrane fractions. The soluble fraction was adjusted to a final protein concentration of 1 mg ml^−1 for gel-based ABPP experiments.
Competitive gel-based ABPP and apparent IC50 values. 50 μl of soluble proteome (1 mg ml^−1) expressing the indicated protein were treated with fragment electrophiles (1 μl of 50× stock solution in DMSO) at ambient temperature for 1 h. The indicated probe (fluorophore or alkyne-containing, 1 μl of a 500 μM solution, final concentration=10 μM) was then added and allowed to react for an additional 1 h. CuAAC and in-gel fluorescence analysis were performed as described above. For quantification of inhibition and apparent IC50 determination, the percentage of labeling was determined by quantifying the integrated optical intensity of the bands using ImageLab 5.2.1 software (BioRad). Nonlinear regression analysis was used to determine the IC50 values from a dose-response curve generated using GraphPad Prism 7.

[2] = tested on: soluble proteome of the human breast cancer cell line MDA-MB-231; assay: isoTOP-ABPP, residues labeled by probe 1; format: binding
Protocol: STP-alkyne labeling and click chemistry. For concentration-dependent reactivity measurements by isoTOP-ABPP, 0.5 ml proteome aliquots were treated at ambient temperature with 1 mM STP-alkyne 1 (5 μl of 100 mM stock in DMSO) and 0.1 mM STP alkyne 1 (5 μl of 10 mM stock in DMSO), respectively. For competitive isoTOP-ABPP, after in vitro fragment treatment (detailed above), the samples were labeled for 1 h at ambient temperature with 0.1 mM STP-alkyne 1 (5 μl of 10 mM stock in DMSO). Samples were conjugated by copper-mediated azide-alkyne cycloaddition (CuAAC) to either the light (1 mM STP-alkyne or fragment treated) or heavy (0.1 mM STP-alkyne or DMSO treated) TEV tags (10 μl of 5 mM stocks in DMSO, final concentration=100 μM) using tris(2-carboxyethyl)phosphine hydrochloride
Peptide and protein identification. The MS2 spectra were extracted from the raw file using RAW Xtractor. MS2 spectra were searched using the ProLuCID algorithm using a reverse concatenated, nonredundant variant of the Human UniProt database (release-2012_11). Cysteine residues were searched with a static modification for carboxyamidomethylation (+57.02146). For all competitive and reactivity profiling experiments, lysine residues were searched with up to one differential modification for either the light or heavy TEV tags (+464.2491 or +470.26331, respectively). Peptides were required to have at least one tryptic terminus and to contain the TEV modification. ProLuCID data was filtered through DTASelect (version 2.0) to achieve a peptide false-positive rate below 1%.
Differential labeling analysis of residues labeled by probe 1. For analysis of the residues labeled by probe 1, peptide and protein identification was conducted as detailed above with differential modification for either the light or heavy TEV tags (+464.2491 or +470.26331, respectively) allowed on lysine, arginine, aspartate, glutamate, histidine, serine, threonine, tyrosine, asparagine, glutamine and tryptophan. Cysteine was searched with a differential modification for either the light or heavy TEV tags (+413.24185 and +407.22764, respectively).
To assess the scope and selectivity with which 1 reacted with lysine residues in human cell proteomes, initial isoTOP-ABPP experiments were performed as follows. Two equal amounts of the soluble proteome of the human breast cancer cell line MDA-MB-231 (0.75 mg of protein per sample) were treated with 1 (100 μM, 1 h), and then conjugated by copper-catalyzed azide-alkyne cycloaddition (CuAAC) to isotopically differentiated TEV-cleavable, azide-biotin tags (heavy and light, respectively). The heavy and light-tagged samples were then combined, and 1-labeled proteins enriched by streptavidin and proteolytically digested sequentially with trypsin and TEV protease (to release 1-labeled tryptic peptides from the streptavidin support), furnishing isotopic (heavy/light) peptide pairs that were analyzed by multidimensional liquid chromatography-MS(LC/LC-MS/MS). Measurement of the MS1 chromatographic peak ratios for light/heavy peptide pairs provided an isoTOP-ABPP ratio or R value, which centered on about 1.0 for the more than 5000 probe 1-labeled peptides quantified in this initial study. […] Because lysine modification creates a missed trypsin cleavage site, the fractions of alternative amino-acid modification assignments were further assessed for their occurrence on peptides harboring a missed lysine cleavage site. […]

[3] = 1 100 μM, 1 h, pilot experiment

T1 sequence (P50583 whole entry): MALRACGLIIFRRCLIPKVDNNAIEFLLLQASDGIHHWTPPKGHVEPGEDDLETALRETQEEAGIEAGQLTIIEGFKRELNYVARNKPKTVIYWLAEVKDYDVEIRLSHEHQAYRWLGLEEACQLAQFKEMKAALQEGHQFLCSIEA

| blockade of probe 1-labeling of K89 in NUDT2 ([1]; FIG. 11G) | IC50 ([1]; gel-based ABPP, read-out: apparent IC50, blockade of probe labeling of NUDT2) [µM] | SMILES | reactivity and selectivity for lysine residues in the human proteome ([2]; 1 100 μM) | probe 1-labeled peptides quantified ([2]; 1 100 μM, 1 h) | 1-labeled peptides assigned as uniquely modified on lysine residues [2, 3] [%] | remaining 1-labeled peptides assigned with lysine modifications as well as alternative residue modifications [2, 3] [%] | probe 1 modifications assigned to serine, of the total 1-labeled peptides ([2]; after filtering missed lysine cleavage events) |
| --- | --- | --- | --- | --- | --- | --- | --- |
| quantitatively blocked | 2 | COC(=O)NC(=NC(=O)OCC1c2ccccc2-c2ccccc21)n1cccn1 [fragment 49, N-Methoxycarbonyl-N′-9-fluorenylmethoxycarbonyl-pyrazole-1-carboxamidine] |  |  |  |  |  |
|  |  | C#CCCC(=O)Oc1c(F)c(F)c(S(=O)(=O)[O-])c(F)c1F.[Na+] [probe 1, reference compound] | broad reactivity and good selectivity for lysine residues | more than 5000 | > 52 | 54 | about 8% |
